{"source": "patent US20230312759A1", "about": "“BISPECIFIC ANTIBODY AGAINST CD3 AND CD20 IN COMBINATION THERAPY FOR TREATING DIFFUSE LARGE B-CELL LYMPHOMA” (GENMAB A/S, priority 2020, published 2023)", "key": {"Raji cells": {"tested_on": "Raji cells", "type": "cell-based", "details": "with T cells, 48 hours, epcoritamab 0.01 pg/mL-100 ng/mL, gemcitabine, oxaliplatin at EC30 concentrations", "procedure": "(§1) Briefly, human Burkitt lymphoma (Raji) and DLBCL (SU-DHL-4) cell lines were used as target cells. Cells were cultured in culture medium (RPMI 1640 with HEPES and L-Glutamine supplemented with 10% heat-inactivated donor bovine serum with iron, and 1% [v/v]penicillin/streptomycin) to which 2 mM L-glutamine and 1 mM sodium pyruvate were added, at 37° C., 5% CO2. T cells, isolated from human healthy donor buffy coats (Sanquin) by negative selection using the RosetteSep™ Human T Cell Enrichment Cocktail (Stemcell Technologies), followed by density centrifugation over a Ficoll gradient, both according to the manufacturer's instructions, were used as effector cells. Isolated cells were washed twice in phosphate buffered saline (PBS) and counted using acridine orange/propidium iodide (AO/PI) viability staining solution (Nexcelom Bioscience) on a Cellometer® Auto 2000 Cell Viability Counter. […] B-cell viability and T-cell activation were measured by flow cytometry (count of CD22-positive cells; expression of the T-cell activation markers CD69, CD25, programmed cell death protein 1 (PD-1), and CD107 [lysosomal associated membrane protein 1; LAMP-1] on CD4+ and CD8+ T cells). Absolute cell numbers were determined by adding Accucheck Counting beads (100 μL/well) (Thermofisher) and calculated as follows:\n(§2) Correction factor=([bead count1+bead count2]/average bead countplate)\n(§3) Absolute cell number=[cell countsample/correction factor]\n(§4) The percentage cytotoxicity was calculated as follows:\n(§5) % cytotoxicity=100−([absolute cell numbersample/absolute cell numberno antibody]×100%)"}, "SU-DHL-4 cells": {"tested_on": "SU-DHL-4 cells", "type": "cell-based", "details": "SU-DHL-4, with T cells, 48 hours; epcoritamab 0.01 pg/mL-100 ng/mL; gemcitabine, oxaliplatin at EC30 concentrations", "procedure": "as §1, §2, §3, §4, §5"}, "[1]": {"tested_on": "T cells incubated with Raji cells", "assay": "In vitro T-cell activation assay, T cells incubated with Raji cells", "type": "cell-based, human", "details": "Raji target cells, 48 hours", "procedure": "as §1, with “follows: […]” for “follows:”"}, "[2]": {"tested_on": "T cells incubated with SU-DHL-4 cells", "assay": "In vitro T-cell activation assay, T cells incubated with SU-DHL-4 cells", "type": "cell-based, human", "details": "SU-DHL-4 target cells, 48 hours", "procedure": "as §1, with “follows: […]” for “follows:”"}, "R/R B-NHL": {"tested_on": "R/R B-NHL", "assay": "Ongoing clinical trial of epcoritamab monotherapy (NCT03625037)", "type": "in vivo, human", "details": "R/R B-NHL patients, preliminary data", "description": "Summary of Ongoing Clinical Trial with Epcoritamab Epcoritamab as monotherapy is currently in a clinical trial for the treatment of relapsed/refractory (R/R) B-NHL (ClinicalTrials.gov Identifier: NCT03625037)."}, "[3]": {"details": "epcoritamab 0.01 pg/mL-100 ng/mL, flow cytometry"}, "[4]": {"details": "gemcitabine 1 nM, oxaliplatin 0.3 μM"}}}
{"compound": "Nc1ccn(C2OC(CO)C(O)C2(F)F)c(=O)n1", "note": "(centres unmarked) [gemcitabine, 4-amino-1-[3,3-difluoro-4-hydroxy-5-(hydroxymethyl)oxolan-2-yl]-1,2-dihydropyrimidin-2-one]", "values": [{"measurement": "cytotoxicity of B cells (decrease in the number of viable B cells)", "setting": "Raji cells", "value": "induced cytotoxicity of B cells"}, {"measurement": "cytotoxicity of B cells (decrease in the number of viable B cells)", "setting": "SU-DHL-4 cells", "value": "induced cytotoxicity of B cells"}]}
{"compound": "O=C1[O][Pt]2([NH][C@@H]3CCCC[C@H]3[NH]2)[O]C1=O", "note": "[oxaliplatin, [(1R,2R)-cyclohexane-1,2-diamine](ethanedioato-O,O′)platinum(II)]", "values": [{"measurement": "cytotoxicity of B cells (decrease in the number of viable B cells)", "setting": "Raji cells", "value": "induced cytotoxicity of B cells"}, {"measurement": "cytotoxicity of B cells (decrease in the number of viable B cells)", "setting": "SU-DHL-4 cells", "value": "induced cytotoxicity of B cells"}]}
{"compound": "epcoritamab: IgG1 bispecific CD3×CD20 antibody; heavy and light chains of SEQ ID NOs: 24 and 25 (CD3 arm), 26 and 27 (CD20 arm); CAS 2134641-34-0", "values": [{"measurement": "T-cell activation (upregulation of CD69, CD25, PD-1 and LAMP-1 expression)", "setting": "[1]; [3]", "value": "concentration-dependent activation of both CD4+ (data not shown) and CD8+ T cells"}, {"measurement": "Epcoritamab-induced T-cell activation in the presence of gemcitabine, oxaliplatin, or the combination", "setting": "[1]; [4]", "value": "not affected"}, {"measurement": "T-cell activation (upregulation of CD69, CD25, PD-1 and LAMP-1 expression)", "setting": "[2]; [3]", "value": "concentration-dependent activation of both CD4+ (data not shown) and CD8+ T cells"}, {"measurement": "Epcoritamab-induced T-cell activation in the presence of gemcitabine, oxaliplatin, or the combination", "setting": "[2]; [4]", "value": "not affected"}, {"measurement": "tolerated dose", "setting": "R/R B-NHL", "value": "at least 48 mg"}, {"measurement": "cytotoxicity of B cells (decrease in the number of viable B cells)", "setting": "Raji cells", "value": "concentration-dependent T-cell-mediated cytotoxicity"}, {"measurement": "cytotoxicity of B cells (decrease in the number of viable B cells)", "setting": "SU-DHL-4 cells", "value": "concentration-dependent T-cell-mediated cytotoxicity"}]}
